Experimental findings from US6462086B1, “Non-malignant disease treatment with Ras antagonists” (Ramot University Authority for Applied Research and …, priority 1999, dated 2002) are described below.

“Also recorded” adds a separate entry of the source.

One assay has as its system human HSC. The experiment in a line: PDGF-stimulated DNA synthesis ([3H]TdR) in human hepatic stellate cells. In kind it is cell-based. Conditions: PDGF-BB 10 ng/ml; 24 h FTS. How it is done: Human HSCs were isolated from wedge sections of normal human liver unsuitable for transplantation as previously reported (6, 7). Briefly, after a combined digestion with collagenase/pronase, HSCs were separated from other liver nonparenchymal cells by ultracentrifugation over gradients of stractan (Cellsep™ isotonic solution, Larex Inc., St. Paul, Minn.). Extensive characterization was performed as described in (7). Cells were cultured on plastic culture dishes (Falcon, Becton Dickinson, Lincoln Park, N.J.) in Iscove's modified Dulbecco's medium supplemented with 0.6 U/ml insulin, 2.0 mmol/L glutamine, 0.1 mmol/L nonessential amino acids, 1.0 mmol/L sodium pyruvate, antibiotic antifungal solution (all provided by Gibco Laboratories, Grand Island, N.Y.) and 20% fetal bovine serum (Imperial Laboratories, Andover, U.K.). Experiments described in this study were performed on cells between third and fifth serial passages (1:3 split ratio) using three independent cell lines.
DNA synthesis was measured as the amount of [Methyl-^3H]thymidine ([^3 H]TdR) incorporated into trichloroacetic acid-precipitable material. […] At the end of the pulsing period, [^3H]TdR incorporation into cellular DNA was measured as previously reported (8). Cell number was determined in three separate wells from each dish and results were expressed as cpm/10^5 cells.

In a further assay the test system is Ras. Kind of assay: Amount of Ras in spleen lymphocytes of FTS-treated SJL mice (Western immunoblot, pan-Ras Ab). It is filed as in vivo, mouse. Conditions: FTS 5 mg/kg/day, 48 h following treatment, densitometry. On the procedure: Naive SJL mice received either the vehicle or FTS (10 mg/Kg, i.p., twice a day) for 2 days. The total amounts of Ras were then determined in cell lysates prepared as detailed in (14). Briefly, spleen lymphocytes of the control and of the FTS-treated mice were homogenized in homogenization buffer as detailed previously (14-15). Total cellular protein (50 μg) corresponding to 1.2×10^6 cells, as separated by 12.5% sodium dodecylsulfate polyacrylamide gel electrophoresis (SDS-PAGE) and blotted onto nitrocellulose membranes. hmmunoblotting with pan-Ras Ab (pan-Ras Ab-3, Calbiochem), enhanced chemiluminescense assays (ECL) and densitometric analysis were then performed as detailed previously (14-15). Lymphocytes of vehicle- and of FTS-treated (5 mg/kg/day) SJL mice were obtained from the spleens of mice, 48 h following treatment. The cells where then homogenized and the total amount of Ras was determined by Western immunobloting with pan Ras antibody (14). The apparent amount of Ras in the lymphocytes of the FTS-treated mice was lower than that of the control lymphocytes.
For orientation: Immunoblotting shows a protein as a band on a membrane.

A further assay relates to MRL/lpr mice. Kind of assay: Lymphadenopathy and splenomegaly in MRL mice. In kind it is in vivo, mouse. On the procedure: The development of generalized lymphadenopathy in the MRL/lpr mice (saline and FTS-treated) was evaluated by palpation of axillary and inguinal lymph nodes. The maximal lymph nodes score in each mouse was 4, when both axillary and inguinal lymph nodes (in both sides) were palpable. At 18 weeks of age the mice were sacrificed and the spleens and lymph nodes (axillary, inguinal and cervical) were removed and weighed.

Assay [1] deals with acute experimental autoimmune encephalomyelitis (EAE) in SJL/J mice. The experiment in a line: Acute EAE in SJL/J mice, clinical signs. Conditions: compared to controls. It is filed as in vivo, mouse. On the procedure: Induction of acute EAE was based on a modification of Bernard's protocol (13). Briefly, equal volumes of MSCH (10 mg/ml in PBS) and complete Freud's adjuvant (CFA) enriched with Mycobacterium tuberculosis H37Ra (6 mg/ml) (Difco Laboratories, Detroit, Mich.) were homogenized in a blender. For each mouse, 0.1 ml (0.5 mg) of the emulsion were injected s.c. into the four footpads. Immediately thereafter and 2 days later, mice were injected i.v. with Bordetella pertussis (2.7×10^9 organisms per mouse) (Rafa Laboratories, Jerusalem, Israel). Animals were examined daily for signs of disease. The first clinical signs appeared on day 10-12 post immunization and were scored according to the following six point scale: 0: no abnormality; 1: mild tail weakness (floppy tail); 2: tail paralysis; 3: tail paralysis and hind leg paresis; 4: hind leg paralysis or mild forelimb weakness; 5: quadriplegia or moribund state; 6: death.
FTS (as powder) was diluted in chloroform (35.8 mg/ml of FTS=0.1 M) and kept in aliquods. The content (25 μl) of one aliquod was evaporated under nitrogen and then disolved in 6 μl absolute ethanol and 7 μl of 1N NaOH; 890 μl of PBS were subsequently added. Each mouse received 0.1 ml of this solution daily (0.1 mg/mouse or 5 mg/kg) intraperitoneally (i.p.).

The subject of a further assay is CR-EAE in SJL/J mice. The experiment in a line: Chronic-relapsing EAE (CR-EAE) by transfer of PLP-sensitized lymphocytes, clinical signs. In kind it is in vivo, mouse.
Assay [2] concerns lymphocyte surface markers (CD3, CD4, CD8, IA-k, Vb17, CD62L). The experiment in a line: FACS analysis of surface markers on lymph node lymphocytes of EAE mice. In kind it is in vivo, mouse. Conditions: percentages of positively stained cells among 10,000; EAE mice + FTS, day 10. How it is done:
Single cell suspensions were prepared from the draining lymph nodes of mice in which EAE was induced, on day 10 post immunization for EAE-induction. Cells were incubated on ice, for 30 min with 20 μl of the monoclonal FITC-conjugated anti-CD62L, anti-IA-k ([…]) and anti-Vb17 antibodies (Becton and Dickinson, USA). The proportions of cells expressing these surface markers were examined by a fluoresecence activated cell sorter (FACS), and were calculated as the percentages of positively stained cells among 10,000 cells enumerated.
For orientation: In flow cytometry, cells or beads pass a laser one at a time.

Consider `CC(C)=CCC/C(C)=C/CC/C(C)=C/CSc1ccccc1C(=O)O` [FTS, farnesyl thiosalicylic acid], for which the “FTS concentration affecting PDGF-stimulated 3H-thymidine incorporation into DNA” value in the assay with human HSC lay in the range of 25 to 50 µM. The “reduction in the amount of Ras in lymphocytes” value with Ras came to 36±7%. In the assay on MRL/lpr mice (MRL/++ mice, untreated 0.13±0.01), this compound came in with a spleen weight of 0.19 ± 0.03 g. Moreover, in the assay with MRL/lpr mice (MRL/lpr mice), the “lymphadenopathy (palpation score)” value is “significantly delayed; also recorded: significantly less” and the “weight of excised lymph nodes” value is “significant effect of FTS; also recorded: significantly less”. Also, the spleen weight with MRL/lpr mice (MRL/lpr mice, 17 weeks, mean±SE, untreated 0.54±0.04) worked out at 0.41 ± 0.04 g. For the same compound, the “clinical course of EAE (FIG. 1)” value in assay [1] is “significantly ameliorated”. The “clinical course of CR-EAE (FIG. 2)” value in the assay on CR-EAE in SJL/J mice (FTS 5 mg/kg/day from day of cell transfer) is reported as “milder form of CR-EAE”. The “mortality in CR-EAE” value with CR-EAE in SJL/J mice (FTS 5 mg/kg/day, vehicle group 30%) is “none of them died”. For the same compound, the “total relapses of the paralytic disease” value in the assay with CR-EAE in SJL/J mice (follow-up 2-3 months, n=7, control 9) came to 5. In assay [2], the “proportion of lymphocytes expressing CD3” value came to 94.2 ± 2.7, the “proportion of lymphocytes expressing CD4” value is listed as 51.6 ± 1.9, the “proportion of lymphocytes expressing CD8” value stood at 26.2 ± 9.2 and the “proportion of lymphocytes expressing CD62L” value is 67.1 ± 7.3. Further, in assay [2], the “proportion of lymphocytes expressing IA-k” value is listed as 28.3 ± 3.2 and the “proportion of lymphocytes expressing Vb17” value came out at 11.3 ± 2.1.
